ChEMBL document CHEMBL2034821, “Synthesis, hypoglycemic and hypolipidemic activities of novel thiazolidinedione derivatives containing thiazole/triazole/oxadiazole ring” (Eur J Med Chem, 2012)

Legend:
Rattus norvegicus [1] = assay: Hypolipidemic activity in alloxan-induced diabetic Wistar rat model assessed as reduction in triglyceride level at 30 mg/kg, po for 15 days measured on day 15; assay type: functional; design: scale not given: the % may be the effect or the level left
Rattus norvegicus [2] = assay: Toxicity in Wistar rat at 3 to 100 mg/kg, po for 15 days; assay type: organism-based; design: dose 3-100 mg/kg, route oral; conditions: in vivo, 360 h
Rattus norvegicus [3] = assay: Hypolipidemic activity in alloxan-induced diabetic Wistar rat model assessed as reduction in triglyceride level at 3 mg/kg, po for 15 days measured on day 15; assay type: functional; design: scale not given: the % may be the effect or the level left
Rattus norvegicus [4] = assay: Hypoglycemic activity in alloxan-induced diabetic Wistar rat model assessed as reduction in plasma glucose level at 3 mg/kg, po for 15 days measured on day 15; assay type: functional; design: scale not given: the % may be the effect or the level left
Rattus norvegicus [5] = assay: Hypolipidemic activity in alloxan-induced diabetic Wistar rat model assessed as reduction in triglyceride level at 10 mg/kg, po for 15 days measured on day 15; assay type: functional; design: scale not given: the % may be the effect or the level left
Rattus norvegicus [6] = assay: Hypoglycemic activity in alloxan-induced diabetic Wistar rat model assessed as reduction in plasma glucose level at 30 mg/kg, po for 15 days measured on day 15; assay type: functional; design: scale not given: the % may be the effect or the level left
Rattus norvegicus [7] = assay: Hypoglycemic activity in alloxan-induced diabetic Wistar rat model assessed as reduction in plasma glucose level at 100 mg/kg, po for 15 days measured on day 15; assay type: functional; design: scale not given: the % may be the effect or the level left
Rattus norvegicus [8] = assay: Hypoglycemic activity in alloxan-induced diabetic Wistar rat model assessed as reduction in plasma glucose level at 10 mg/kg, po for 15 days measured on day 15; assay type: functional; design: scale not given: the % may be the effect or the level left
Rattus norvegicus [9] = assay: Hypolipidemic activity in alloxan-induced diabetic Wistar rat model assessed as reduction in triglyceride level at 100 mg/kg, po for 15 days measured on day 15; assay type: functional; design: scale not given: the % may be the effect or the level left

Row | Structure (SMILES) | Activity (Rattus norvegicus [1]) [%] | Activity (Rattus norvegicus [2]) | Activity (Rattus norvegicus [3]) [%] | Activity (Rattus norvegicus [4]) [%] | Activity (Rattus norvegicus [5]) [%] | Activity (Rattus norvegicus [6]) [%] | Activity (Rattus norvegicus [7]) [%] | Activity (Rattus norvegicus [8]) [%] | Activity (Rattus norvegicus [9]) [%]
1 | Cc1nc(COc2ccc(/C=C3\SC(=O)NC3=O)cc2)cs1 | 26.4 | Non-toxic | 18.62 | 10.42 | 19.2 | 14.73 | 22.87 | 10.64 | 38.92
2 | O=C1NC(=O)/C(=C/c2ccc(OCCSc3nnc(-c4ccccc4)o3)cc2)S1 | 24.05 | Non-toxic | 21.56 | 11.62 | 22.18 | 16.13 | 20.08 | 14.64 | 33.12
3 | O=C1NC(=O)/C(=C/c2ccc(OCCSc3nnc(-c4ccccc4[N+](=O)[O-])[nH]3)cc2)S1 | 38.64 | Non-toxic | 19.84 | 14.58 | 20.91 | 20.14 | 26.84 | 15.28 | 49.12
4 | O=C1NC(=O)/C(=C/c2ccc(OCCSc3nnc(-c4ccccc4)[nH]3)cc2)S1 | 26.4 | Non-toxic | 18.62 | 10.42 | 19.2 | 14.73 | 22.87 | 10.64 | 38.92
5 | O=C1NC(=O)/C(=C/c2ccc(OCCSc3nnc(-c4ccc(Br)cc4)[nH]3)cc2)S1 | 39.45 | Non-toxic | 28.35 | 13.15 | 26.87 | 19.52 | 28.51 | 20.43 | 45.68
6 | O=C1NC(=O)/C(=C/c2ccc(OCCSc3nnc(-c4cccnc4)o3)cc2)S1 | 60.78 | Non-toxic | 40.66 | 24.35 | 45.1 | 39.34 | 50.09 | 33.16 | 72.32
7 | O=C1NC(=O)/C(=C/c2ccc(OCCSc3nnc(Cc4ccccc4)[nH]3)cc2)S1 | 38.25 | Non-toxic | 22.45 | 18.28 | 22.81 | 28.54 | 34.38 | 19.36 | 41.87
8 | Cc1ccc(-c2nnc(SCCOc3ccc(/C=C4\SC(=O)NC4=O)cc3)[nH]2)cc1 | 40.26 | Non-toxic | 25.24 | 16.87 | 21.69 | 22.64 | 29.73 | 20.36 | 53.96
9 | O=C1NC(=O)/C(=C/c2ccc(OCc3csc(-c4ccccc4)n3)cc2)S1 | 40.26 | Non-toxic | 25.24 | 17.75 | 21.69 | 22.64 | 29.73 | 20.36 | 53.96
10 | COc1ccc(-c2nnc(SCCOc3ccc(/C=C4\SC(=O)NC4=O)cc3)[nH]2)cc1 | 59.46 | Non-toxic | 43.14 | 41.28 | 42.63 | 40.04 | 43.42 | 33.62 | 71.24
11 | O=C1NC(=O)/C(=C/c2ccc(OCCSc3nnc(-c4ccc([N+](=O)[O-])cc4)[nH]3)cc2)S1 | 18.56 | Non-toxic | 14.12 | 11.92 | 15.32 | 16.02 | 18.04 | 13.85 | 22.08
12 | O=C1NC(=O)/C(=C/c2ccc(OCCSc3nnc(-c4ccncc4)o3)cc2)S1 | 58.48 | Non-toxic | 40.15 | 23.46 | 42.17 | 40 | 43.42 | 32.62 | 69.72
13 | O=C1NC(=O)/C(=C/c2ccc(OCCSc3nnc(-c4ccc(Cl)cc4)[nH]3)cc2)S1 | 32.92 | Non-toxic | 23.85 | 16.04 | 24.56 | 23.68 | 28.85 | 19.63 | 41.56
14 | CCc1ccc(CCOc2ccc(CC3SC(=O)NC3=O)cc2)nc1 (centres undefined) [PIOGLITAZONE] | 64.59 |  | 41.6 | 47.02 | 47.25 | 40.96 | 45.89 | 35.25 | 75.43
15 | O=C1NC(=O)/C(=C/c2ccc(OCCSc3nnc(Cc4ccccc4)o3)cc2)S1 | 28.02 | Non-toxic | 18.52 | 14.23 | 20.54 | 19.08 | 23.08 | 16.82 | 34.56
